Columns and labels:
[1] = tested on: CHO-K1 (Chinese Hamster Ovarian Cancer, ATCC, CRL-2243) cell line; experiment: Ex-vivo photodynamic efficacy study of ALA with red OLED light (microscopy, PpIX fluorescence, MTT cell viability)
[2] = tested on: presumed ocular histoplasmosis; design: species or system person; details: in vivo, iv
pathological myopia = experiment: Verteporphin photodynamic therapy of pathological myopia with red OLED; assay type: in vivo, person; details: about 6 mg/m^2 intravenously, retina illuminated with red OLED about 15 minutes after start of infusion
[3] = tested on: age-related macular degeneration; experiment: Verteporphin photodynamic therapy of age-related macular degeneration with red OLED; assay type: in vivo, person; details: about 6 mg/m^2 intravenously, retina illuminated with red OLED about 15 minutes after start of infusion
actinic keratoses = experiment: Photodynamic treatment of actinic keratoses lesions with topical photosensitiser pro-drug and red OLED; details: 20% topical solution, illuminated with red OLED about 14-18 hours after application

## NCC(=O)CCC(=O)O [ALA, 5-aminolevulinic acid]
[1]; Cricetulus griseus, CHO-K1, light or radiation study, read-out: cell destroyed compared with reference (MTT cell viability)
  cytotoxicity at 1000 µM: ~90%
[1]; after 25 J/cm^2 red light irradiation, leafy type cells transform to droplet type (FIG. 9)
  cell morphology under optical microscope after light irradiation: significant and irreversible cell death
[1]; at the light dose of 27 J/cm^2
  concentration of ALA required: at least 1 mM

## C=Cc1c(C)c2cc3nc(cc4[nH]c(cc5nc(cc1[nH]2)C(C)=C5CCC(=O)O)c(CCC(=O)OC)c4C)[C@@]1(C)C3=CC=C(C(=O)OC)[C@H]1C(=O)OC [Verteporphin]
[2]
  patient's vision after treatment: stabilized
Pathological myopia
  patient's vision after treatment: stabilized
[3]
  patient's vision after treatment: stabilized

## Cl.NCC(=O)CCC(=O)O [5-Aminolevulinic acid HCl]
Actinic keratoses
  number or severity of the lesions after the treatment: reduced
